Among the data in ChEMBL document CHEMBL1921767, “Facile synthesis of new 4-aza-podophyllotoxin analogs via microwave-assisted multi-component reactions and evaluation of their cytotoxic activity” (Bioorg Med Chem Lett, 2011) are IC50 values, retold here.

Each structure is given as a SMILES string. In brackets after ≈: the same amount, converted by molar mass. Where only a bound is given, the exact number is not on record here.

One may read the IC50 as the point on the concentration scale where inhibition reaches its midpoint.

What all share (format): functional, cell-based
Experiment [1] in a line: Cytotoxicity against human SW1116 cells after 24 hrs by MTT assay. The following applies: SW 1116, 24 h.
For another experiment, the system named is MCF7. As to the kind of experiment: Cytotoxicity against human MCF7 cells after 24 hrs by MTT assay. As to conditions: MCF7, 24 h.
Another experiment relates to M14. As to the kind of experiment: Cytotoxicity against human M14 cells after 24 hrs by MTT assay. The following applies: M14, 24 h.

`Cc1nc2c3c(ccc2s1)NC1=C(C(=O)OC1)C3c1ccc(Br)cc1` (racemic): the values for the IC50 (in experiment [1]; with MCF7; in the experiment with M14) were 257 µg/mL (≈ 623 µM), 748 µg/mL (≈ 1810 µM) and 167 µg/mL (≈ 405 µM), respectively.

As to `Cc1nc2c3c(ccc2s1)NC1=C(C(=O)OC1)C3c1cccc([N+](=O)[O-])c1` (racemic), the IC50 in experiment [1] was 26 µg/mL (≈ 68.5 µM); in the experiment with MCF7, 151 µg/mL (≈ 399 µM); with M14, 77.9 µg/mL (≈ 205 µM).

As to `Cc1nc2c3c(ccc2s1)NC1=C(C(=O)OC1)C3c1ccc([N+](=O)[O-])cc1` (racemic), the IC50 (in experiment [1]; in the experiment with MCF7; in the experiment with M14) was greater than 1000 µg/mL throughout.

For the compound `Cc1nc2c3c(ccc2s1)NC1=C(C(=O)OC1)C3c1ccccc1` (racemic), the IC50 was 156 µg/mL (≈ 466 µM) in experiment [1], greater than 1000 µg/mL in the experiment with MCF7 and greater than 1000 µg/mL in the experiment on M14.

As to `Cc1ccc(C2C3=C(COC3=O)Nc3ccc4sc(C)nc4c32)cc1` (racemic), the IC50 was found to be 122 µg/mL (≈ 350 µM) in experiment [1], 25.7 µg/mL (≈ 73.7 µM) with MCF7 and 225 µg/mL (≈ 645 µM) in the experiment with M14.

In the case of `COc1ccc(C2C3=C(COC3=O)Nc3ccc4sc(C)nc4c32)cc1` (racemic), the IC50 in experiment [1] is greater than 1000 µg/mL; in the experiment on M14, 508 µg/mL (≈ 1390 µM).

As for `Cc1nc2c3c(ccc2s1)NC1=C(C(=O)OC1)C3c1ccc(Cl)cc1Cl` (racemic), the results for the IC50 with MCF7 and in the experiment with M14 were 539 µg/mL (≈ 1340 µM) and greater than 1000 µg/mL, respectively.

Turning to `Cc1nc2c3c(ccc2s1)NC1=C(C(=O)OC1)C3c1ccc(O)c([N+](=O)[O-])c1` (racemic), the IC50 came out at 69.4 µg/mL (≈ 176 µM) in experiment [1], 56 µg/mL (≈ 142 µM) in the experiment with MCF7 and 33.9 µg/mL (≈ 85.7 µM) in the experiment on M14.

As for `COc1cc(C2C3=C(COC3=O)Nc3ccc4sc(C)nc4c32)cc(OC)c1OC` (racemic), the IC50 was 383 µg/mL (≈ 903 µM) in experiment [1], 686 µg/mL (≈ 1620 µM) in the experiment with MCF7 and greater than 1000 µg/mL in the experiment with M14.
